According to US20190374512A1, “COMPOUNDS FOR TREATMENT OF PANCREATIC CANCER” (UNIVERSITY OF TENNESSEE RESEARCH FOUNDATION, priority 2018, published 2019):

System: PC-3/Txr tumors
Assay: PC-3/Txr tumor growth inhibition, oral dosing
Settings: in vivo

## CC(=O)O[C@@]12CO[C@@H]1C[C@H](O)[C@@]1(C)C(=O)[C@H](O)C3=C(C)[C@@H](OC(=O)[C@H](O)[C@@H](NC(=O)OC(C)(C)C)c4ccccc4)C[C@@](O)([C@@H](OC(=O)c4ccccc4)[C@H]21)C3(C)C [docetaxel]
  efficacy in PC-3/Txr tumors: lack of efficacy
